One data set concerns LNCaP cells. As to the kind of experiment: SRB in vitro chemosensitivity assay, LNCaP. Format: cell-based. Here is the method:
(§1) The cell lines were maintained as a monolayer at 37° C. and subcultured weekly. Culture medium was composed of RPMI 1640 supplemented with 10% fetal calf serum and 1% glutamine (Mascia Brunelli s.p.a., Milan, Italy). Cells were used in the exponential growth phase in all the experiments.
(§2) Compounds were dissolved in acetone or DMSO (AITES) ([…]) and stored at −20° C. The cell culture containing acetone at the highest concentration was used as the control.
(§3) Sulforhodamine B (SRB) assay was used according to the method by Skehan et al. (JNCI, 1990). Briefly, cells were collected by trypsinization, counted and plated at a density of 5,000 cells/well in 96-well flat-bottomed microtiter plates (100 μl of cell suspension/well). In the chemosensitivity assay, experiments were run in octuplicate, and each experiment was repeated three times. The optical density (OD) of cells was determined at a wavelength of 490 nm by a colorimetric plate reader.
(§4) If ODtreated is above ODzero, treatment has induced a cytostatic effect, whereas if ODtreated is below ODzero, cell killing has occurred. The ODzero depicts the cell number at the moment of drug addition, the ODcontrol reflects the cell number in untreated wells and the ODtreated reflects the cell number in treated wells on the day of the assay.
(§5) FIGS. 2-11 show the cytotoxic activity of the derivative compounds of the invention on the LNCaP and LNCaP-AR cell lines. The authors examined the antitumour activity of the compounds for which the synthesis is described above, in the hormone-sensitive prostate cancer cell line LNCaP and in its derivative cell line LNCaP-AR, expressing high level of AR and with hormone refractory prostate cancer (HRPC) features. The novel compounds were tested at the increasing concentrations of […], 0.2, 2.0, and 20.0 μM. The highest dose used was chosen on the basis of the clinically achievable peak plasma concentration reported in the literature for bicalutamide (Cockshott I D. Clin Pharmacokinet. 2004; 43(13): 855-78). After 144-hr exposure time the cytotoxic effect of the molecules was calculated according to the method of Monks et al. (Monks A, Scudiero D, Skehan P, et al. Feasibility of a high-flux anticancer drug screen using a diverse panel of cultured human tumor cell lines. J Natl Cancer Inst. 1991; 83: 757-66.)

The test system of the next data set is LNCaP-AR cells. The data set can be described thus: SRB in vitro chemosensitivity assay, LNCaP-AR. Format: cell-based. The procedure: as §1, §2, §3, §4, §5
The subject of another data set is DU145 cell line. The data set can be described thus: SRB cytotoxicity, DU145. Format: cell-based, human. The note with it: DU145 (no AR), 144 h, up to 20 μM. The procedure: FIGS. 16-25: cytotoxic effect of compounds (R)-XXIII-2, (R)-XXIII-3, (R)-XXIII-4, (R)-XXIII-5, (R)-XXIII-6, (R)-XXIII-7, (R)-XXIII-8, (R)-XXIII-9, (R)-XXIII-10, (R)-XXIV-9 on PC-3 and DU-145 cell lines at different concentration (0.02, 0.2, 2, 20 μM) after 144 h exposure. On the x-axis is reported the concentration, while on the y-axis is reported the inhibition of the net growth (% net growth).
as §3, §4

In data set [1] the test system is normal stem cells derived from human peripheral blood stem cells. The data set can be described thus: Colony-forming cell assay (GM-CFU). The format is cell-based. Here is the method: The colony-forming cell assay was used as previously described [Matta M R, Mangianti S, Rizzi S, Ratta M, Campanini E, Fortuna A, et al. Pharmacological purging of minimal residual disease from peripheral blood stem cell collections of acute myloblastic leukaemia patients: preclinical studies. Exp Hematol 1997; 25:1261-1269]. In brief, for each molecule, 5×10^4 cells were plated in duplicate in a complete culture medium (MethoCult H4434, StemCell Technologies, Vancouver, Canada) containing different concentrations (0.2, 2, and 20 μmol/l) of the compound. After 14 days of incubation in a humidified atmosphere of 5% CO2 at the temperature of 37° C., granulocyte macrophage colony-forming unit (GM-CFU) aggregates of more than 50 cells were counted. Control cells were incubated under the same conditions but in drug-free medium.

Data set [2] has as its system human hepatoblastoma cell line HepG2. The data set can be described thus: Cytotoxic activity on HepG2 (hepato-toxicity). The note with it: HepG2, up to highest concentration tested. Format: cell-based. Here is the method:
as §3, §4
FIG. 27-36 show the cytotoxic activity of the drugs on the human hepatoblastoma cell line HepG2. The authors evaluated in vitro the potential hepato-toxicity of some of the novel compounds on HepG2 cell line, a human hepatoblastoma cell line that retains the specialized function of normal hepatocytes [Knowles B B, Howe C C, Aden D P. Human hepatocellular carcinoma cell lines secretes the major plasma proteins and hepatitis B surface antigen. Science 1980, 209:497-499; Aden D P, Vogel A, Plortkin S, Damjanov I, Knowles B B. Controlled synthesis of HBS Ag in a differentiated human liver carcinoma-derived cell line. Nature, 1979, 282:615-616].

Structures are written as SMILES. “Also recorded” adds a separate entry of the source.

A word on the GI50: it is the concentration that inhibits growth by half. High values mean lower sensitivity of the cells, low ones greater sensitivity of the cells. With `N#Cc1ccc(NC(=O)[C@](O)(Cc2cccs2)CS(=O)(=O)c2ccc(F)cc2)cc1C(F)(F)F` [(R)-XXIII-6], the concentration for 50% growth inhibition (GI50) in the data set on LNCaP cells (Homo sapiens, LNCaP, 144 h) is 8.9 µM; with LNCaP-AR cells (Homo sapiens, LNCaP/AR, 144 h), 9.8 µM; in data set [1] (hematopoietic precursors, highest concentration tested 20 μmol/l), “not being able to reach GI50 value”. For the same compound, the LC50 entry in the data set with LNCaP cells (LNCaP cells, 144 h exposure, up to 20 μM) was “n.r”; with LNCaP-AR cells (LNCaP-AR cells, 144 h exposure, up to 20 μM), “n.r”. The “cytotoxic effect (cytostatic / cytocidal), in words” value with LNCaP cells (LNCaP, 144 h, up to 20 μM) is recorded as “suppress completely the cell growth”; in the data set with LNCaP-AR cells (LNCaP-AR, 144 h, up to 20 μM), “suppress completely the cell growth”. Also, in the data set with DU145 cell line, the “cytotoxic activity, in words” value is “negligible cytotoxic activity”. Also, the “inhibition of clonogenic growth of normal stem cells (mielotoxicity), in words” value in data set [1] (0.2, 2, 20 μmol/l, 14 days) was “does not seem to exert significant mielotoxicity; also recorded: weak cytostatic activity”. Moreover, the “hepato-toxicity, in words” value in data set [2] was “did not display toxicity”.

(Values after US8741951B2, “Non-steroidal compounds for androgen receptor modulation” (CNR—Consiglio Nazionale delle Ricerche, priority 2009, dated 2014).)
